Results: patent US12187709B2 (Genentech, Inc., priority 2021, dated 2025)

What was measured:
[1] = target: c-Cbl (Homo sapiens (Human), UniProt P22681); assay: C-Cbl LCK Ub TR-FRET assay (C-cbl Lck HTRF); format: biochemical
Method in brief: (§1)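 Detection reagents added, brief spin, 20 min RT. IC50 fit normalized to no-LCK (low) and DMSO (high) controls.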

[2] = target: Cbl-b (Homo sapiens (Human), UniProt Q13191); assay: Cbl-b LCK Ub TR-FRET assay (Cbl-b Lck HTRF); format: biochemical; settings: for IC50: Cbl-b LCK Ub TR-FRET; for (fold-selectivity) Cbl-b and C-Cbl Selectivity / fold-selectivity (Cbl-b over C-cbl): ratio C-cbl Lck HTRF IC50 / Cbl-b Lck HTRF IC50
Method in brief: as §1

Sequence of c-Cbl (P22681 47-435): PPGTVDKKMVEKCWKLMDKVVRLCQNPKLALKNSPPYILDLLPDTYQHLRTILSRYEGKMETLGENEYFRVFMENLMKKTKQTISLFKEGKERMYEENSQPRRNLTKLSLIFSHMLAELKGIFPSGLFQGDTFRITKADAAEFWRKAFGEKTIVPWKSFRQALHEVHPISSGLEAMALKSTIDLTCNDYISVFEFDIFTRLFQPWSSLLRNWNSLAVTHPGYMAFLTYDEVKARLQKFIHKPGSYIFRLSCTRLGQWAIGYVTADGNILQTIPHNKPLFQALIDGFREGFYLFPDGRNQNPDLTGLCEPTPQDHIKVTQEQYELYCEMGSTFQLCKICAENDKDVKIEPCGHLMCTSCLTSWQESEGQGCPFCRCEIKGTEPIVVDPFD
Sequence of Cbl-b (Q13191 40-426): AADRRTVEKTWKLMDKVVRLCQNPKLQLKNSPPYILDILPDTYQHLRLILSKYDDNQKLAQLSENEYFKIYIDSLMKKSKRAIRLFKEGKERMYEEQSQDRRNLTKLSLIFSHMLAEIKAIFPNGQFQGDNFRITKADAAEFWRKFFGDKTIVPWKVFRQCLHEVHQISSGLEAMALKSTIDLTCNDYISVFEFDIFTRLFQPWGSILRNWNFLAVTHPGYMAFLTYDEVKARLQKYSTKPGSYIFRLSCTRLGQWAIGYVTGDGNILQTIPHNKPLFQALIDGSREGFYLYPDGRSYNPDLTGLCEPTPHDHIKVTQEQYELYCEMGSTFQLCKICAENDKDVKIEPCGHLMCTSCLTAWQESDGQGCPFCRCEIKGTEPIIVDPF

| Compound | IC50 [1] [µM] | IC50 ([2]; Example 121) [µM] | (fold-selectivity) Cbl-b and C-Cbl Selectivity [2] [x] | IC50 [2] [µM] | fold-selectivity (Cbl-b over C-cbl) [2] |
| --- | --- | --- | --- | --- | --- |
| Cn1cnnc1[C@H](c1cccc(N2Cc3c(cc([C@@H](NC4(C)CCC4)C4CCC4)cc3C(F)(F)F)C2=O)c1)C1COC1 (single isomer, unassigned) [Compound 435] | 20 | 8.5 | 2.4 |  |  |
| Cn1cnnc1[C@](O)(c1cccc(N2Cc3c(cc(CNC4(C)CCC4)cc3C(F)(F)F)C2=O)c1)C1COC1 (single isomer, unassigned) [Compound 144] | 8.2 |  |  | 4.5 | 1.6x |
| Cn1cnnc1[C@]1(c2cccc(N3Cc4c(cc(CNC5(C)CCC5)cc4C(F)(F)F)C3=O)c2)C[C@@H]([S@@+](C)[O-])C1 (single isomer, unassigned) [Compound 163] | 20 |  |  | ≥ 20 | 1.0x |
| Cn1cnnc1[C@@H](CC1(C)COC1)c1cccc(N2Cc3c(cc(CNC4(C)CCC4)cc3C(F)(F)F)C2=O)c1 [Compound 255, (S)-2-(3-(1-(4-methyl-4H-1,2,4-triazol-3-yl)-2-(3-methyloxetan-3-yl)ethyl)phenyl)-6-(((1-methylcyclobutyl)amino)methyl)-4-(trifluoromethyl)isoindolin-1-one] | 0.99 |  |  | 0.76 | 1.3x |
| Cn1cnnc1[C@]1(c2cccc(N3Cc4c(cc(CNC5(C)CCC5)cc4C(F)(F)F)C3=O)c2)C[C@@](C)(F)C1 [Compound 31, 2-(3-((1r,3r)-3-fluoro-3-methyl-1-(4-methyl-4H-1,2,4-triazol-3-yl)cyclobutyl)phenyl)-6-(((1-methylcyclobutyl)amino)methyl)-4-(trifluoromethyl)isoindolin-1-one] | 0.033 |  |  | 0.015 | (2.2x) |
| Cn1cnnc1[C@@H](c1cccc(N2Cc3c(cc(CN[C@@H]4C[C@@H]5C[C@@H]5C4)cc3C(F)(F)F)C2=O)c1)C1COC1 (single isomer, unassigned) [Compound 469] | 0.0045 | 0.0053 | 0.85 |  |  |
| Cn1cnnc1[C@H](c1cccc(N2Cc3c(cc(CNC4(C)CCC4)cc3C(F)(F)F)C2=O)c1)C1COC1 (single isomer, unassigned) [Compound 165] | 10 |  |  | 3.9 | 2.3 x |
| C[C@H](NC1CCC1)c1cc2c(c(C(F)(F)F)c1)CN(c1cccc(C3(c4nncn4C)CC(F)(F)C3)c1)C2=O (single isomer, unassigned) [Compound 37] | 0.0099 |  |  | 0.0066 | (1.5x) |
| Cn1cnnc1[C@H](CC1CCOCC1)c1cccc(N2Cc3c(cc(CNC4(C)CCC4)cc3C(F)(F)F)C2=O)c1 (single isomer, unassigned) [Compound 252] | 13 |  |  | 9.1 | 1.4x |
| CC(=O)N1CC2(C1)CC(c1cccc(N3Cc4c(cc(CNC5(C)CCC5)cc4C(F)(F)F)C3=O)c1)(c1nncn1C)C2 [Compound 97, 2-(3-(2-acetyl-6-(4-methyl-4H-1,2,4-triazol-3-yl)-2-azaspiro[3.3]heptan-6-yl)phenyl)-6-(((1-methylcyclobutyl)amino)methyl)-4-(trifluoromethyl)isoindolin-1-one] | 16 |  |  | 5.2 | 3.1x |
| Cn1cnnc1[C@@H](OC1CC1)c1cccc(N2Cc3c(cc(CNC4(C)CCC4)cc3C(F)(F)F)C2=O)c1 (single isomer, unassigned) [Compound 44] | 10 |  |  | 4.2 | (2.4x) |
| Cn1cnnc1[C@@H](CC1COC1)c1cccc(N2Cc3c(cc(CNC4(C)CCC4)cc3C(F)(F)F)C2=O)c1 [Compound 244, (S)-2-(3-(1-(4-methyl-4H-1,2,4-triazol-3-yl)-2-(oxetan-3-yl)ethyl)phenyl)-6-(((1-methylcyclobutyl)amino)methyl)-4-(trifluoromethyl)isoindolin-1-one] | 3.6 |  |  | 3.1 | 1.2x |
| Cn1cnnc1[C@@H](CC1CCCC1)c1cccc(N2Cc3c(cc(CNC4(C)CCC4)cc3C(F)(F)F)C2=O)c1 [Compound 248, (S)-2-(3-(2-cyclopentyl-1-(4-methyl-4H-1,2,4-triazol-3-yl)ethyl)phenyl)-6-(((1-methylcyclobutyl)amino)methyl)-4-(trifluoromethyl)isoindolin-1-one] | 2.1 |  |  | 1.4 | 1.6x |
| Cn1cnnc1[C@H](CC1(C)COC1)c1cccc(N2Cc3c(cc(CNC4(C)CCC4)cc3C(F)(F)F)C2=O)c1 [Compound 254, (R)-2-(3-(1-(4-methyl-4H-1,2,4-triazol-3-yl)-2-(3-methyloxetan-3-yl)ethyl)phenyl)-6-(((1-methylcyclobutyl)amino)methyl)-4-(trifluoromethyl)isoindolin-1-one] | 20 |  |  | ≥ 20 | 1.0x |
| CCOc1cc([C@]2(c3nncn3C)C[C@H](C)C2)cc(N2Cc3c(cc(CNC4(C)CCC4)cc3C(F)(F)F)C2=O)n1 [Compound 4, 2-(6-ethoxy-4-((1r,3r)-3-methyl-1-(4-methyl-4H-1,2,4-triazol-3-yl)cyclobutyl)pyridin-2-yl)-6-(((1-methylcyclobutyl)amino)methyl)-4-(trifluoromethyl)isoindolin-1-one] | 0.006 |  |  | 0.0066 | (0.91x) |
| Cn1cnnc1[C@@H](c1cccc(N2Cc3c(cc(CNC4(C)CCC4)cc3C(F)(F)F)C2=O)c1)C1CC2(COC2)C1 [Compound 122, (R)-2-(3-((4-methyl-4H-1,2,4-triazol-3-yl)(2-oxaspiro[3.3]heptan-6-yl)methyl)phenyl)-6-(((1-methylcyclobutyl)amino)methyl)-4-(trifluoromethyl)isoindolin-1-one] | 2.1 |  |  | 1.4 | 1.6x |
| Cn1cnnc1[C@H](c1cccc(N2Cc3c(cc(CNC4(C)CCC4)cc3C(F)(F)F)C2=O)c1)[C@@H]1CCS(=O)(=O)C1 (single isomer, unassigned) [Compound 439] | 20 | 14 | 1.4 |  |  |
| Cn1cnnc1[C@]1(c2cccc(N3Cc4c(cc(CNC5(C)CCC5)cc4C(F)(F)F)C3=O)c2)C[C@@H](F)C1 [Compound 36, 2-(3-((1r,3r)-3-fluoro-1-(4-methyl-4H-1,2,4-triazol-3-yl)cyclobutyl)phenyl)-6-(((1-methylcyclobutyl)amino)methyl)-4-(trifluoromethyl)isoindolin-1-one] | 0.012 |  |  | 0.011 | (1.1x) |
| Cn1cnnc1C1(c2cccc(N3Cc4c(cccc4C(F)(F)F)C3=O)c2)CC2(COC2)C1 [Compound 191, 2-(3-(6-(4-methyl-4H-1,2,4-triazol-3-yl)-2-oxaspiro[3.3]heptan-6-yl)phenyl)-4-(trifluoromethyl)isoindolin-1-one] | 9.7 |  |  | 5.7 | 1.7x |
| Cn1cnnc1[C@@H](c1cccc(N2Cc3c(cc(CNC4(C)CCC4)cc3C(F)(F)F)C2=O)c1)C1(O)COC1 (single isomer, unassigned) [Compound 146] | 9.2 |  |  | 4 | 2.3x |
| Cn1cnnc1[C@H](CC1CCC1)c1cccc(N2Cc3c(cc(CNC4(C)CCC4)cc3C(F)(F)F)C2=O)c1 [Compound 268, (R)-2-(3-(2-cyclobutyl-1-(4-methyl-4H-1,2,4-triazol-3-yl)ethyl)phenyl)-6-(((1-methylcyclobutyl)amino)methyl)-4-(trifluoromethyl)isoindolin-1-one] | 2.7 |  |  | 1.7 | 1.6x |
| CO[C@H]1C[C@](O)(C(c2cccc(N3Cc4c(cc(CNC5(C)CCC5)cc4C(F)(F)F)C3=O)c2)c2nncn2C)C1 (single isomer, unassigned) [Compound 367] | 12 |  |  | 7.1 | 1.7x |
| Cn1cnnc1[C@]1(c2cccc(N3Cc4c(cc(CNC5(C)CCC5)cc4C(F)(F)F)C3=O)c2)C[C@](F)(CF)C1 [Compound 105, 2-(3-((1r,3r)-3-fluoro-3-(fluoromethyl)-1-(4-methyl-4H-1,2,4-triazol-3-yl)cyclobutyl)phenyl)-6-(((1-methylcyclobutyl)amino)methyl)-4-(trifluoromethyl)isoindolin-1-one] | 0.054 |  |  | 0.015 | 3.7x |
| Cn1cnnc1[C@H](OC1CCC1)c1cccc(N2Cc3c(cc(CNC4(C)CCC4)cc3C(F)(F)F)C2=O)c1 [Compound 47, (R)-2-(3-(cyclobutoxy(4-methyl-4H-1,2,4-triazol-3-yl)methyl)phenyl)-6-(((1-methylcyclobutyl)amino)methyl)-4-(trifluoromethyl)isoindolin-1-one] | 2.3 |  |  | 1.2 | (1.9x) |
| CCNc1cc([C@]2(c3nncn3C)C[C@H](C)C2)cc(N2Cc3c(cc(CNC4(C)CCC4)cc3C(F)(F)F)C2=O)n1 [Compound 6, 2-(6-(ethylamino)-4-((1r,3r)-3-methyl-1-(4-methyl-4H-1,2,4-triazol-3-yl)cyclobutyl)-pyridin-2-yl)-6-(((1-methylcyclobutyl)amino)methyl)-4-(trifluoromethyl)isoindolin-1-one] | 0.0062 |  |  | 0.011 | (0.56x) |
| Cn1cnnc1[C@@]1(c2cccc(N3Cc4c(cc(CNC5(C)CCC5)cc4C(F)(F)F)C3=O)c2)CCC(F)(F)C1 (single isomer, unassigned) [Compound 106] | 0.081 |  |  | 0.023 | 3.5x |
| Cn1cnnc1[C@](F)(c1ccccc1)c1cccc(N2Cc3c(Cl)cc(CNC4(C)CCC4)cc3C2=O)c1 (single isomer, unassigned) [Compound 321] | 20 |  |  | ≥ 20 | 1.0x |
